Measurements as given in patent publication US9382245B2, “Compounds and methods for treating HIV infections” (priority 2013, dated 2016).
Read-outs that look alike come from different tables or passages of the source. Marks after values point to notes of the source that are not given here. Each block holds one compound with its values, some of them ahead of it.

Assays:
[1] = system: IIIB strain of HIV-1 (wild-type); assay: microbe, parasite or virus in culture; assay type: cell-based
[2] = Table 2, cited from earlier work
[3] = Aqueous solubility, shake-flask procedure; assay type: physicochemical
Experimental: Poor solubility, which has been a problem for many NNRTIs, often leads too low bioavailability, difficulties in formulation, and high dosages.^6,32,33 The issue reflects the hydrophobic nature of the NNRTI binding site. In the design of the catechol diethers, attention was paid to having both good potency and aqueous solubility. In our laboratory, solubilities are measured using a shake-flask procedure.^6,34 The compounds are dissolved in Britton-Robinson buffer and stirred in vials for 48 hours at 25° C. The pH of the buffer solutions is 6.5 as measured by a Corning General Purpose pH Combination probe (4136L21).

SMILES: N#Cc1cc2cccc(Oc3ccc(F)cc3OCCn3ccc(=O)[nH]c3=O)n2c1 [11a, 5-(2-(2-(2,4-dioxo-3,4-dihydropyrimidin-1(2H)-yl)ethoxy)-4-fluorophenoxy)indolizine-2-carbonitrile]
- fold less active, WT ([1]; 11a compared with its isomer 10f): 6 fold
- CC50 (in vitro; human): > 100 µM

SMILES: Cc1ccnc2c1NC(=O)c1cccnc1N2C1CC1 [nevirapine, reference compound]
- CC50 (in vitro): > 100 µM
- CC50 (human MT-2 T-cells; Table 3, 50% inhibition of MT-2 cell growth): > 100 µM
- CC50 (human MT-2 T-cells; Table 4, 50% inhibition of MT-2 cell growth): > 100 µM
- S, aqueous solubility ([2]; Ref. 35): 167^a μg/mL

SMILES: Cc1cc(C#N)cc(C)c1Oc1nc(Nc2ccc(C#N)cc2)nc(N)c1Br [etravirine]
- S, aqueous solubility ([2]; Ref. 36): <<1^b μg/mL

- EC50 ([1]; Human immunodeficiency virus 1, IIIB, MT2, read-out: WT EC50): 0.002 µM
SMILES: O=C1Nc2ccc(Cl)cc2[C@@](C#CC2CC2)(C(F)(F)F)O1 [efavirenz, reference compound]

- fold less soluble ([3]; 14e compared with indolizine 10b): 10 fold
- fold improvement in solubility ([3]; 14e over etravirine and rilpivirine): ca. 40 fold
- solubility at 48 h ([3]; Britton-Robinson buffer, 25 °C, pH 6.5, aqueous buffer, thermodynamic from solid, Table 2, pH 6.5, Britton-Robinson buffer, 48 hours at 25° C., read-out: S, aqueous solubility): 4.3 µg/mL
SMILES: N#Cc1ccc2c(Oc3ccccc3OCCn3ccc(=O)[nH]c3=O)cccc2c1 [14e, 5-(2-(2-(2,4-dioxo-3,4-dihydropyrimidin-1(2H)-yl)ethoxy)phenoxy)-2-naphthonitrile]
- CC50 (in vitro; human): > 100 µM
- CC50 (human MT-2 T-cells; human): > 100 µM

SMILES: O=c1ccn(CCOc2ccccc2Oc2cccc3ccccc23)c(=O)[nH]1 [14a, 1-(2-(2-(naphthalen-1-yloxy)phenoxy)ethyl)pyrimidine-2,4(1H,3H)-dione]
- fold less active, WT ([1]; 14a compared with 14e): 100 fold
- CC50 (human MT-2 T-cells; human): 80 µM
